The test system of series [1] is MCF7. In words: Breast Cancer Cell Proliferation Assay (MCF-7). Type of series: cell-based. As to conditions: Homo sapiens, 120 h; MCF7 cells, 5 days of compound exposure, Cell Titer-Glo. As for the experimental part: Breast Cancer Cell Proliferation Assay (MCF-7)
MCF7 was expanded and maintained in the medium (Phenol red free DMEM/F12 (Hyclone SH30272.01) NEAA (Gibco11140-050) Na-pyruvate (Gibco 11360-070) and Re-stripped Charcoal stripped FBS (Gemini 100-119)). The cells were adjusted to a concentration of 3,000 cells per mL in the above media, and the cells were incubated (37° C., 5% CO2). The following day a 10 point, serial dilution of compounds was added to the cells at a final concentration ranging from 10-0.000005 μM for test compounds (17β-estradiol was used as a control). Additional cells were plated in 30 wells to serve as the day 1 (pretreatment) comparison. After 5 days of compound exposure, Cell Titer-Glo reagent was added to the cells and the relative luminescence units (RLUs) of each well was determined. Cell Titer-Glo was also added to 32 μL of medium without cells to obtain a background value. The plates were allowed to incubate at room temperature for 10 minutes to stabilize luminescent signal and the luminescence signal was recorded with EnSpire. The relative increase in cell number of each sample is determined as follows: (RLU sample-RLU background/RLU estrogen only treated cells-RLU background)×100=% inhibition.
(In ATP-based viability assays light output follows the ATP content of the culture.)

Series [2] has as its target T1, ERα (Homo sapiens, UniProt P03372).
T1 construct: endogenous in cells; host or cells: MCF-7
T1 sequence (P03372 1-595): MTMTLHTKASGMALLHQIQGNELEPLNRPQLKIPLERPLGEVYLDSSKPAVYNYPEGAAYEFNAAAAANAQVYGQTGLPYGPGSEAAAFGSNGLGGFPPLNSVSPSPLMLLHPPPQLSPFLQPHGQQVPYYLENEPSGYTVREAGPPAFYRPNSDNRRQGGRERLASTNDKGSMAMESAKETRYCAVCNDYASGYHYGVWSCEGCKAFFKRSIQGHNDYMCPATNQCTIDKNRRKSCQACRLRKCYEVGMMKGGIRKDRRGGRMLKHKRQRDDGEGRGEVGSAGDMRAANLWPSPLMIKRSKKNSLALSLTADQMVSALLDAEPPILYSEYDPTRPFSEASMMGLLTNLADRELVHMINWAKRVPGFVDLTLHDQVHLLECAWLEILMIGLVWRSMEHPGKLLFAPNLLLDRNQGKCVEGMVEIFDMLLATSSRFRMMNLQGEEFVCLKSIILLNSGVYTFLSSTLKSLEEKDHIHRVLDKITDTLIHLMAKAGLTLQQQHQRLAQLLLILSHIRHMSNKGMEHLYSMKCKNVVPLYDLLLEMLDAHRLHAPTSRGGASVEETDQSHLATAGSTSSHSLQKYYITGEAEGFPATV
In words: ER Degradation Determination by Western Blot. As to conditions: MCF-7 cells, 10 μM, 18-24 hours. It is filed as cell-based. How it is done:
ER Degradation Determination by Western Blot
MCF-7 cells are plated at 0.3 million cells/mL (3 mL/well) in 6-well plates in experiment media and incubated at 37° C., 5% CO2 for […]. Next day, 10× solution of compounds are made in DMSO and added the solution to the cells to achieve a final concentration of 10 μM. A DMSO control is included to enable a determination of the relative efficacy of test compounds. Fulvestrant is used as a positive control for ER-alpha degradation, and 4-OH tamoxifen as a control for receptor stabilization. After incubating cells with compounds for 18-24 hours, cell lysates are prepared (2× Cell lysis buffer:100 mM Tris, pH 8, 300 mM NaCl, 2% NP40, 1% Na deoxycholate, 0.04% SDS, 2 mM EDTA) and mixed thoroughly and incubated on ice. The protein concentration is quantified using BCA kit. […] The gel was then transferred onto a nitrocellulose membrane. […] GAPDH protein was used as an internal control.
(In general: A western blot detects proteins with antibodies after separation by electrophoresis.)

Series [3] can be described thus: Pharmacokinetic Determination (Rat PK). Type of series: in vivo. Particulars: plasma, female SD rats. How it is done:
Example D Pharmacokinetic Determination
Grouping female SD rats weighing 200-300 g randomly to two groups; one group was administered with test compound at a dose of 3.0 mg/kg by intravenous injection, the other group was administered with test compound at a dose of 10.0 mg/kg by oral. The formulation for IV groups is DMSO/PEG400/150 mM glycine (pH 9) (5/10/85) and the formulation for PO groups is PEG400/PVP/Tween 80/0.5% CMC in water (9/0.5/0.5/90). After administering, blood samples of intravenous injection group were collected at time points of predose, 0.0833, 0.25, 0.5, 1, 2, 4, 8, 12 and 24 h; blood samples of oral group were collected at time points of predose, 0.25, 0.5, 1, 2, 4, 8, 12, and 24 h. Standard curve was plotted based on concentrations of the samples in a suitable range, the concentrations of test compounds in plasma samples were determined by using LC-MS/MS. Pharmacokinetic parameters were calculated according to drug concentration-time curve using a noncompartmental method by WinNonLin (Phoenix™, version 6.1) or other similar software.

pIC50: −log10 of the molar value.

As a reminder, the pIC50 is the IC50 on a negative log10 scale, so that one unit is a factor of ten. Read a high pIC50 as a low IC50. Usually AUC(0-inf) stands for total exposure, with the tail of the curve extrapolated. Lower therefore signals low exposure. The term clearance denotes the volume of plasma or blood freed of the substance per unit of time. Lower therefore signals inefficient removal. The term half-life denotes how long it takes for the measured level to halve. A higher half-life goes with slow loss. The term Cmax denotes the highest concentration seen after dosing. What is called Tmax is the time at which the peak concentration occurs.

In series [1], `C[C@@H]1Cc2c([nH]c3cc(O)ccc23)[C@@H](c2c(F)cc(/C=C/C(=O)O)cc2F)N1CC(C)(C)F` [Example 15A, (E)-3-(3,5-Difluoro-4-((1R,3R)-2-(2-fluoro-2-methylpropyl)-7-hydroxy-3-methyl-2,3,4,9-tetrahydro-1H-pyrido[3,4-b]indol-1-yl)phenyl)acrylic acid] showed a pIC50 of at least 7.60.
Same read-out and setting: for `CC1(C)Cc2c([nH]c3ccccc23)C(c2c(F)cc(/C=C/C(=O)O)cc2F)N1CC12CC(C1)C2` (centres unmarked) [Example 22, (E)-3-(4-(2-(Bicyclo[1.1.1]pentan-1-ylmethyl)-3,3-dimethyl-2,3,4,9-tetrahydro-1H-pyrido[3,4-b]indol-1-yl)-3,5-difluorophenyl)acrylic acid] the value was 6.60 to 7.60.
Turning to `C[C@@H]1Cc2c([nH]c3ccccc23)[C@@H](c2c(F)cc(/C=C/C(=O)O)cc2F)N1C1CCOCC1` [Example 6A, (E)-3-(3,5-Difluoro-4-((1R,3R)-3-methyl-2-(tetrahydro-2H-pyran-4-yl)-2,3,4,9-tetrahydro-1H-pyrido[3,4-b]indol-1-yl)phenyl)acrylic acid], the ERα % degradation entry in series [2] was “B (B = ERα % degradation <80%)”.
In turn, `C[C@@H]1Cc2c([nH]c3ccccc23)[C@@H](c2c(F)cc(/C=C/C(=O)O)cc2F)N1C1CC(F)(F)C1` (single isomer, unassigned) [Example 9A] showed a pIC50 in series [1] of 6.60 to 7.60. In addition, in series [2], the ERα % degradation result is on record as “A (A = ERα % degradation ≥80%)”.
With `C[C@@H]1Cc2c([nH]c3ccccc23)[C@@H](c2c(F)cc(/C=C/C(=O)O)cc2F)N1CC1(F)COC1` [Example 16A, (E)-3-(3,5-Difluoro-4-((1R,3R)-2-((3-fluorooxetan-3-yl)methyl)-3-methyl-2,3,4,9-tetrahydro-1H-pyrido[3,4-b]indol-1-yl)phenyl)acrylic acid], the pIC50 in series [1] was at least 7.60.
On the same count and under the same terms, to `CCC1Cc2c([nH]c3ccccc23)C(c2c(F)cc(/C=C/C(=O)O)cc2F)N1CC12CC(C1)C2` (centres unmarked) [Example 24, (E)-3-(4-(2-(Bicyclo[1.1.1]pentan-1-ylmethyl)-3-ethyl-2,3,4,9-tetrahydro-1H-pyrido[3,4-b]indol-1-yl)-3,5-difluorophenyl)acrylic acid] belongs 6.60 to 7.60; to `CC[C@@H]1Cc2c([nH]c3ccccc23)[C@@H](c2c(F)cc(/C=C/C(=O)O)cc2F)N1[C@H]1CCOC1` (single isomer, unassigned) [Example 23A], at least 7.60.
Regarding `C[C@@H]1Cc2c([nH]c3ccccc23)[C@@H](c2c(F)cc(/C=C/C(=O)O)cc2F)N1C12CC(C(F)(F)F)(C1)C2` (single isomer, unassigned) [Example 4A], the pIC50 in series [1] is 6.60 to 7.60. Besides, the ERα % degradation result in series [2] is on record as “A (A = ERα % degradation ≥80%)”.
The like results for `C[C@@H]1Cc2c([nH]c3ccc(O)cc23)[C@@H](c2c(F)cc(/C=C/C(=O)O)cc2F)N1CC(C)(C)F` (single isomer, unassigned) [Example 13B] were, in that order, at least 7.60 and “B (B = ERα % degradation <80%)”.
In series [1], `C[C@@H]1Cc2c([nH]c3ccccc23)[C@@H](c2c(F)cc(/C=C/C(=O)O)cc2F)N1CC1(C)COC1` [Example 18A, (E)-3-(3,5-Difluoro-4-((1R,3R)-3-methyl-2-((3-methyloxetan-3-yl)methyl)-2,3,4,9-tetrahydro-1H-pyrido[3,4-b]indol-1-yl)phenyl)acrylic acid] gave a pIC50 of at least 7.60.
On the same count and under the same terms, to `CC[C@H]1Cc2c([nH]c3ccccc23)[C@H](c2c(F)cc(/C=C/C(=O)O)cc2F)N1C12CC(C1)C2` (single isomer, unassigned) [Example 25B] belongs at least 7.60.
The compound `C[C@@H]1Cc2c([nH]c3ccccc23)[C@@H](c2c(F)cc(/C=C/C(=O)O)cc2F)N1CC1COC1` [Example 17A] showed a negative-log IC50 (pIC50) in series [1] of 6.60 to 7.60.
Still for that read-out and setting: for `C[C@@H]1Cc2c(n(C)c3ccccc23)[C@@H](c2c(F)cc(/C=C/C(=O)O)cc2F)N1C12CC(C1)C2` [Example 26A, (E)-3-(4-((1R,3R)-2-(bicyclo[1.1.1]pentan-1-yl)-3,9-dimethyl-2,3,4,9-tetrahydro-1H-pyrido[3,4-b]indol-1-yl)-3,5-difluorophenyl)acrylic acid] the value was at most 6.60.
In series [3] (IV, 3.0 mg/kg), `CC/C(=C(/c1ccc(/C=C/C(=O)O)cc1)c1ccc2[nH]ncc2c1)c1ccc(F)cc1Cl` [ARN810, reference compound] had an AUC(0-inf) of 5.9 µM·h, a clearance of 19 mL/min/kg and a half-life of 4.7 h. In addition, the Vd in series [3] (IV, 3.0 mg/kg, read-out: Vdss) stood at 1.2 L/kg. Moreover, the bioavailability in series [3] (PO 10.0 mg/kg vs IV 3.0 mg/kg) was determined as 117%. In series [3] (PO, 10.0 mg/kg), the AUC(0-inf) turned out to be 23 µM·h, the Cmax amounted to 6.7 µM, the Tmax turned out to be 1 h and the half-life is 6.9 h. The same compound gave a pIC50 in series [1] of at least 7.60.
For the compound `O=C(O)/C=C/c1cc(F)c(C2c3[nH]c4ccccc4c3C[C@@H](C(F)F)N2C2CCOC2)c(F)c1` (stereo partly drawn) [Example 19A, (E)-3-(4-((3S)-3-(Difluoromethyl)-2-(tetrahydrofuran-3-yl)-2,3,4,9-tetrahydro-1H-pyrido[3,4-b]indol-1-yl)-3,5-difluorophenyl)acrylic acid], in series [1], the negative logarithm of the IC50 (pIC50) is at least 7.60.
In turn, `C[C@H]1Cc2c([nH]c3ccc(O)cc23)[C@H](c2c(F)cc(/C=C/C(=O)O)cc2F)N1CC(C)(C)F` (single isomer, unassigned) [Example 13A] gave a negative logarithm of the IC50 (pIC50) in series [1] of 6.60 to 7.60.
The same measure, in the same setting: for `[2H][C@@]1(c2c(F)cc(/C=C/C(=O)O)cc2F)c2[nH]c3ccccc3c2C[C@@H](C)N1C12CC(C1)C2` [Example 11D, (E)-3-(4-((1R,3R)-2-(Bicyclo[1.1.1]pentan-1-yl)-3-methyl-2,3,4,9-tetrahydro-1H-pyrido[3,4-b]indol-1-yl-1-d)-3,5-difluorophenyl)acrylic acid] the value was at least 7.60; for `CC[C@@H]1Cc2c([nH]c3ccccc23)[C@@H](c2c(F)cc(/C=C/C(=O)O)cc2F)N1[C@@H]1CCOC1` (single isomer, unassigned) [Example 23B], 6.60 to 7.60; for `C[C@@H]1Cc2c([nH]c3ccccc23)[C@H](c2c(F)cc(/C=C/C(=O)O)cc2F)N1C12CC(C1)C2` [Example 11C, (E)-3-(4-((1S,3R)-2-(Bicyclo[1.1.1]pentan-1-yl)-3-methyl-2,3,4,9-tetrahydro-1H-pyrido[3,4-b]indol-1-yl)-3,5-difluorophenyl)acrylic acid], at most 6.60.
Still for that read-out and setting: for `CC[C@@H]1Cc2c([nH]c3ccccc23)[C@@H](c2c(F)cc(/C=C/C(=O)O)cc2F)N1C12CC(C1)C2` (single isomer, unassigned) [Example 25A] the value was at most 6.60.

The record behind these values is patent publication US11065234B2, “Estrogen receptor modulators” (Recurium IP Holdings, LLC, priority 2016, dated 2021).
